Assay results published in patent US4898876A, “Benzoylpiperazine esters and a process for their production” (Kowa Co., Ltd., priority 1982, dated 1990).
Counter-ions that a name gives are not always drawn.

What follows are compounds tested against chymotrypsin (Bos taurus, UniProt P00766) (assay: Chymotrypsin inhibitive activity (method of Muramatsu et al., acetyl-L-tyrosine ethyl ester substrate, Hestrin Method)). Conditions: pH 8.0 tris-hydrochloric acid buffer, 10 minutes preincubation, 30° C., 30 minutes, absorbance at 530 nm, read-out: Chymotrypsin inhibitive activity [50% inhibition concentration (M)].
Type: biochemical
Protocol: A solution prepared by mixing 0.1 ml of a dimethylsulfoxide solution containing a compound to be tested, 0.1 ml of water and 0.1 ml of a buffer solution containing 10 ug/ml of chymotrypsin (0.1M tris-hydrochloric acid buffer solution, pH 8.0) was incubated for 10 minutes by the method of Muramatsu et al. [see The Journal of Biochemistry, 62, 408 (1967)]. 0.2 ml of a buffer solution containing 25 mM of an acetyl-L-tyrosine ethyl ester was mixed with the above-prepared solution and reacted at 30° C. for 30 minutes. The amount of the remaining substrate was determined by causing the same to develop color by the Hestrin Method and measuring the absorbance at 530 nm. For comparative purposes, use was made of tosylphenylalanine chloromethyl ketone which was known as a chymotrypsin inhibitor (Comparative Compound I).

Compound | IC50 [M]
CC(C)N1CCN(C(=O)c2ccc(OC(=O)Cc3cccc4c3CCCC4)cc2)CC1 [Example 1, 1-Isopropyl-4-[4-(5,6,7,8-tetraphydronaphthalene-1-acetyloxy)benzoyl]piperazine.hydrochloride] | 3e-06
CC(C)N1CCN(C(=O)c2ccc(OC(=O)C=C3c4ccccc4-c4ccccc43)cc2)CC1 [Example 2, 1-Isopropyl-4-[4-(9-fluorenylideneacetyloxy)benzoyl]piperazine] | 1e-07
CC(C)N1CCN(C(=O)c2ccc(OC(=O)Cc3cc4ccccc4s3)cc2)CC1 [Example 3] | 9e-07
CC(C)N1CCN(C(=O)c2ccc(OC(=O)C3CCc4ccccc43)cc2)CC1 (stereo not shown) [Example 4] | 5e-06
COc1ccc2c(c1)C(CC(=O)Oc1ccc(C(=O)N3CCN(C(C)C)CC3)cc1)=CC2 [Example 9] | 1e-06
CC1CCC(C(=O)Oc2ccc(C(=O)N3CCN(C(C)C)CC3)cc2)c2ccccc21 (stereo not shown) [Example 15] | 8e-07
CC(C)N1CCN(C(=O)c2ccc(OC(=O)C3CCCc4cc(Cl)ccc43)cc2)CC1 (stereo not shown) [Example 17] | 8e-07
Cc1ccc2c(c1)CCCC2C(=O)Oc1ccc(C(=O)N2CCN(C(C)C)CC2)cc1 (stereo not shown) [Example 18] | 6e-07
CC(C)N1CCN(C(=O)c2ccc(OC(=O)C3=Cc4ccccc4CC3)cc2)CC1 [Example 20] | 5e-06
CC(C)N1CCN(C(=O)c2ccc(OC(=O)C3C=CCc4cc(Cl)ccc43)cc2)CC1 (stereo not shown) [Example 21] | 9e-06
CC(C)N1CCN(C(=O)c2ccc(OC(=O)CC3=CCCc4ccccc43)cc2)CC1 [Example 22] | 3e-06
CC(C)N1CCN(C(=O)c2ccc(OC(=O)Cc3cccc4ccccc34)cc2)CC1 [Example 24] | 5e-07
CC(C)N1CCN(C(=O)c2ccc(OC(=O)COc3ccc4ccccc4c3)cc2)CC1 [Example 30] | 9e-06
CC(C)N1CCN(C(=O)c2ccc(OC(=O)CCc3ccc4ccccc4c3)cc2)CC1 [Example 32] | 7e-06
CC(C)N1CCN(C(=O)c2ccc(OC(=O)CC3c4ccccc4-c4ccccc43)cc2)CC1 [Example 40] | 1e-06
COc1ccc2c(c1)C(C(=O)Oc1ccc(C(=O)N3CCN(C)CC3)cc1)CCC2 (stereo not shown) [Example 65, 1-Methyl-4-[4-(7-methoxyl-1,2,3,4-tetrahydro-1-naphtoyloxy)benzoyl]piperazine.methanesulfonate] | 8e-07
O=C(Oc1ccc(C(=O)N2CCN(C3CCCCC3)CC2)cc1)C1CCCc2ccccc21 (stereo not shown) [Example 66] | 9e-07
CC(C)N1CCN(C(=O)c2ccc(OC(=O)C3CCCc4ccccc43)cc2)CC1 (stereo not shown) [Example 67] | 8e-07
CCN1CCN(C(=O)c2ccc(OC(=O)C3CCCc4ccccc43)cc2)CC1 (stereo not shown) [Example 68] | 9e-07
